What is called IC50 is the point on the concentration scale where inhibition reaches its midpoint.

In one assay the target is Acetylcholinesterase (Homo sapiens, UniProt P22303). As to the kind of experiment: Inhibition of human AChE using acetylthiocholine iodide as substrate by Ellman's assay. On the technique in general: In Ellman's method for cholinesterases, released thiocholine reacts with DTNB.
A further assay addresses Cholinesterase (Homo sapiens, UniProt P06276). As to the kind of experiment: Inhibition of human BChE using butyrylthiocholine iodide as substrate by Ellman's method.

Each structure is given as a SMILES string.

Sequence of Cholinesterase (P06276 whole entry): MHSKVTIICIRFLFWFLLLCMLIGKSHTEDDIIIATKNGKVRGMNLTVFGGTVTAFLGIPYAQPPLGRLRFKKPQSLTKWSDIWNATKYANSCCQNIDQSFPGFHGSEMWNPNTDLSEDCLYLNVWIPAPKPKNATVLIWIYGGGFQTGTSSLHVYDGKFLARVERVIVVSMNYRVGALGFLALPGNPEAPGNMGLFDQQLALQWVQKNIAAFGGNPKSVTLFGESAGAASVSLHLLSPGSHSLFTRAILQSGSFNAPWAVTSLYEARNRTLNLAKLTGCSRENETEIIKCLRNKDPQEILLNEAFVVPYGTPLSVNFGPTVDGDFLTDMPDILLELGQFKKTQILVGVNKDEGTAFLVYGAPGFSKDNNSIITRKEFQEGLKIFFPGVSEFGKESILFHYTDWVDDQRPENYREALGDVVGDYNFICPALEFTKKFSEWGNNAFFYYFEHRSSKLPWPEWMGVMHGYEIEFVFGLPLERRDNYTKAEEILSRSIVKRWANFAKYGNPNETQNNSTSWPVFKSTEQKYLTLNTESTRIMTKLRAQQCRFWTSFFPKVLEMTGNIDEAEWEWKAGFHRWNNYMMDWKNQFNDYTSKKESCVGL
Sequence of Acetylcholinesterase (P22303 whole entry): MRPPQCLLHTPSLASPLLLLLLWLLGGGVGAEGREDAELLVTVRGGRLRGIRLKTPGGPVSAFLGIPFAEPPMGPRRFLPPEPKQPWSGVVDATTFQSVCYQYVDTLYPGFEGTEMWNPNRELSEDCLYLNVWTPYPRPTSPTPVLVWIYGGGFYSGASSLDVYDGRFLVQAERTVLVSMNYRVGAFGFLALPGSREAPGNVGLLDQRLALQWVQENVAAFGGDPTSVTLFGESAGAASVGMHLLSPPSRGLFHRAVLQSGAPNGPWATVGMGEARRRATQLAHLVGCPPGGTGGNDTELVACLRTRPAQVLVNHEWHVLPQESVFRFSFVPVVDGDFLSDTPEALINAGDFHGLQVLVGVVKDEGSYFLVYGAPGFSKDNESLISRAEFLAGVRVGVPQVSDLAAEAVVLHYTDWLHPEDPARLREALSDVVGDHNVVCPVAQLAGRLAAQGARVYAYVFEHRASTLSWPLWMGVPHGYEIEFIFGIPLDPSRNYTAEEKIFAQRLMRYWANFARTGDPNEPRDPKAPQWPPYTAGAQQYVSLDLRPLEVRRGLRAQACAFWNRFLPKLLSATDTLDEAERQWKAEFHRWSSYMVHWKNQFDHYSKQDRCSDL

`CCN(CC)CC(=O)Nc1ccc(C(=O)c2ccc(CN(C)Cc3ccccc3)cc2)cc1`: the half-maximal inhibitory concentration (IC50) is 0.21 µM against Acetylcholinesterase and 144 µM against Cholinesterase.

`CCN(CC)CCCCCCOc1ccc(C(=O)c2ccc(CN(C)Cc3ccccc3)cc2)cc1`: the half-inhibitory concentration (IC50) stood at 0.257 µM against Acetylcholinesterase and 21.9 µM against Cholinesterase.

Turning to `CN(Cc1ccccc1)Cc1ccc(C(=O)c2ccc(OCCCCCCCN3CCCCC3)cc2)cc1`, the values for the IC50 on Acetylcholinesterase and against Cholinesterase were 0.11 µM and 24.2 µM, respectively. For `CN(Cc1ccccc1)Cc1ccc(C(=O)c2ccc(OCCCCCN3CCCCC3)cc2)cc1`, the 50% inhibitory concentration (IC50) was determined as 0.143 µM against Acetylcholinesterase and 10.4 µM on Cholinesterase. As to `CCN(CC)CCc1ccc(Oc2ccc(C(=O)c3ccc(CN(C)Cc4ccccc4)cc3)cc2)cc1`, the values for the IC50 against Acetylcholinesterase and at Cholinesterase were 0.13 µM and 209 µM, respectively. In the case of `CN(Cc1ccccc1)Cc1ccc(C(=O)c2ccc(OCCCN3CCCCC3)cc2)cc1`, the IC50 at Acetylcholinesterase came out at 0.024 µM; against Cholinesterase it was 11 µM. Consider `COc1ccc(C(=O)c2ccc(CN(C)Cc3ccccc3)cc2)cc1`, for which the concentration for half-maximal inhibition (IC50) against Cholinesterase was > 10 µM. Turning to `CN(Cc1ccccc1)Cc1ccc(C(=O)c2ccc(OCCCCCCN3CCCCC3)cc2)cc1`, the IC50 against Acetylcholinesterase is 0.21 µM; at Cholinesterase it was 9.7 µM. Taken in the same sequence, the figures for `CCN(CC)CCCCCCCOc1ccc(C(=O)c2ccc(CN(C)Cc3ccccc3)cc2)cc1` were 0.81 µM and 23 µM.

Turning to `CN(Cc1ccccc1)Cc1ccc(C(=O)c2ccc(OCCCN3CCC(n4c(=O)[nH]c5ccccc54)CC3)cc2)cc1`, the IC50 on Acetylcholinesterase was 0.068 µM; against Cholinesterase, 39 µM.

For `CCN(CC)CCCCCOc1ccc(C(=O)c2ccc(CN(C)Cc3ccccc3)cc2)cc1`, the half-maximal inhibitory concentration (IC50) came to 0.144 µM against Acetylcholinesterase and 34 µM against Cholinesterase.

As to `CN(Cc1ccccc1)Cc1ccc(C(=O)c2ccc(NC(=O)CCCCN3CCCCC3)cc2)cc1`, the IC50 was found to be 0.217 µM against Acetylcholinesterase and 68 µM against Cholinesterase. The matching figures for `CCN(CC)CCCOc1ccc(C(=O)c2ccc(CN(C)Cc3ccccc3)cc2)cc1`: 0.025 µM and 35 µM.

For the compound `CN(Cc1ccccc1)Cc1ccc(C(=O)c2ccc(NC(=O)CN3CCOCC3)cc2)cc1`, the IC50 against Acetylcholinesterase stood at 0.72 µM; against Cholinesterase, 179 µM. As to `CN(Cc1ccccc1)Cc1ccc(C(=O)c2ccc(NC(=O)CN3CCCCC3)cc2)cc1`, the IC50 stood at 0.55 µM on Acetylcholinesterase and 145 µM on Cholinesterase.

For `CN(Cc1ccccc1)Cc1ccc(C(=O)c2ccc(OCCCN3CCOCC3)cc2)cc1`, the half-maximal inhibitory concentration (IC50) is 0.107 µM against Acetylcholinesterase and 21 µM at Cholinesterase.

Values taken from ChEMBL document CHEMBL1773070, “Benzophenone-based derivatives: a novel series of potent and selective dual inhibitors of acetylcholinesterase and acetylcholinesterase-induced beta-amyloid aggregation” (Eur J Med Chem, 2011).
